Assay results published in patent US20060286608A1, “Method for screening transglutaminase 2 inhibitor or activator” (priority 2005, published 2006).
Like-named read-outs stand apart in the source and are kept apart here. Each block holds one molecule with its values, some of them ahead of it. Residues, ends and D or L forms follow the SMILES beside them. *: point of attachment. Cbz = O=C(OCc1ccccc1)*; OtBu = CC(C)(C)O*

What was measured:
TGase 2 [1] = target: T1, TGase 2 (Homo sapiens, UniProt P21980); experiment: Effect of TGase inhibitors on reduced I-κBα in SH-SY5Y/TG cells; assay type: cell-based; conditions: SH-SY5Y/TG cells incubated for 30 min with TGase inhibitor, Western blotting
T1 construct: carry a pcDNA5/FRT vector containing a full-length human TGase 2 gene; expressed in transfected cells; host or cells: human neuroblastoma SH-SY5Y, Flp-In system, pcDNA5/FRT vector
T1 sequence (P21980 1-687): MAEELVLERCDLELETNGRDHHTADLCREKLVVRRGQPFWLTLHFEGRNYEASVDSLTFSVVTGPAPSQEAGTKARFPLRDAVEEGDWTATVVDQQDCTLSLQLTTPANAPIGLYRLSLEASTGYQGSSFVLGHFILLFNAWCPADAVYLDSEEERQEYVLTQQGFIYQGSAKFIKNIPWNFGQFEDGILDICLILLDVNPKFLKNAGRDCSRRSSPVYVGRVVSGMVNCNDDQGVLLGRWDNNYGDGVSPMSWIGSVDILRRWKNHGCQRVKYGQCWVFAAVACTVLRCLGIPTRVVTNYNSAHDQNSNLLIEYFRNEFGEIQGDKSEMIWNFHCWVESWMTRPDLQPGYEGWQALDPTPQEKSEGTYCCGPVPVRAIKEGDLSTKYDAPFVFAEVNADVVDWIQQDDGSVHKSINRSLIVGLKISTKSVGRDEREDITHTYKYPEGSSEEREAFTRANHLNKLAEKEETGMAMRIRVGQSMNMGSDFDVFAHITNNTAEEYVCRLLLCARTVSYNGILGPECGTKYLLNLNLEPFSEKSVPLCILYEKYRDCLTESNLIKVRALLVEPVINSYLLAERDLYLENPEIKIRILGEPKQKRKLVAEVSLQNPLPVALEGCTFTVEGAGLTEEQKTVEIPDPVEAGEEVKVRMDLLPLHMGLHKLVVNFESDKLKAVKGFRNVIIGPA
From the text: Cystamine is known to inhibit TGase activity by blocking the access of a glutamine residue in substrate proteins to the TGase active site. Iodoacetamide (Sigma) is also known to inhibit TGase activity as a strong competitive irreversible inhibitor. […] E2 (DPVKG: SEQ. ID. NO. 6) and R2 (KVLDGQDP: SEQ. ID. NO. 7) were designed to contain a pro-elafin sequence and a pro-elafin/antiflamnin sequence, respectively, therein. […] In order to examine the effect of TGase inhibitors on the decrease in I-κBα level, the SH-SY5Y/TG culture was treated with different inhibitors for 30 min, followed by the separation of the cytosolic fraction using a nuclear extract kit (Sigma).
The effect of TGase 2 expression on the level of I-κBα was examined in EcR 293 and SH-SY5Y cells. To control TGase 2 expression, a tetracycline-induced expression system was applied to EcR 293 cell line (FIG. 6A). In FIG. 6A, EcR 293 cells were collected before incubation (left), after incubation in a medium containing 1 μg/ml of tetracycline for 24 hours (center), and after incubation in a medium containing 1 μg/ml of tetracycline for 24 hours and then in a fresh medium containing no tetracycline for an additional 24 hours (right). […] To examine whether TGase 2 inhibitors can result in the same effect, SH-SY5Y/TG cells were incubated for 30 min with a TGase inhibitor, such as cystamine, idoacetamide, E2 peptide, or R2 peptide.

I-κBα = experiment: Proteasome inhibitor treatment of SH-SY5Y/TG cells, Western blotting for I-κBα and ubiquitin; conditions: SH-SY5Y/TG cells incubated for 6 hours with proteasome inhibitor; for increased ubiquitinated I-κBα: Western blotting; for level of I-κBα: cytosol
SH-SY5Y/TG cells [2] = tested on: SH-SY5Y/TG cells
[3] = target: full-length human NF-κB (p65) (human) (UniProt Q04206); experiment: densitometry of co-immunoprecipitation / Western blot
BV-2 microglia = experiment: Nitric oxide measurement (Griess reaction) in LPS-activated BV-2 microglia; assay type: cell-based, murine; conditions: BV-2 cells treated with LPS and NMMA (0, 50, 100 μM), 24 hours
Experimental: (§1) The BV-2 cells were grown and maintained in DMEM (Dulvecco's modified Eagle's medium) (Invitrogen) supplemented with 10% FCS (fetal calf serum) and penicillin/streptomycin at 37° C. in a humidified incubator under 5% CO2. To activate BV-2, the cells were treated with LPS (100 μg/ml; Sigma) for 24 hours. After LPS treatment for 24 hours with or without inducible nitric-oxide synthase(iNOS) inhibitor, 0, 50, and 100 μM N^G-monomethyl-L-arginine(L-NMMA) (Sigma), proteins were extracted with radioimmunoprecipitation assay buffer (1× phosphate-buffered saline (PBS), 1% Nonidet P-40, 0.5% sodium deoxycholate and 0.1% SDS) containing protease inhibitors from BV-2 harvest, followed by analysis for TGase 2 activity.
Accumulated nitric oxide was measured in the cell supernatant after LPS treatment for 24 hours by Griess reaction. A 200 μl aliquot of the cell supernatant in each well of a 96-well microtiter plate was mixed with 100 μl of the Griess reagent [1% sulfanilamide (Fluka), 0.1% naphthylethylenediamine dihydrochloride (Fluka), 2.5% H3PO4], and the absorbance was read at 540 nm using a plate reader.

TGase 2 [4] = experiment: TGase activity assay in LPS-activated BV-2 microglia; assay type: cell-based, murine; conditions: BV-2 cells treated with LPS and NMMA (0, 50, 100 μM), 24 hours
Experimental: as §1
Enzymatic activity was determined using a modified TGase assay method for measuring the incorporation of [1,4-^14C] putrescine into succinylated casein.

SH-SY5Y/TG cells [5] = experiment: LDH activity in medium and caspase-9 expression in proteasome inhibitor-treated SH-SY5Y/TG cells; conditions: SH-SY5Y/TG cells incubated for 6 hours with proteasome inhibitor
[6] = target: T2, full-length human I-κBα (free form), P25963
T2 chain: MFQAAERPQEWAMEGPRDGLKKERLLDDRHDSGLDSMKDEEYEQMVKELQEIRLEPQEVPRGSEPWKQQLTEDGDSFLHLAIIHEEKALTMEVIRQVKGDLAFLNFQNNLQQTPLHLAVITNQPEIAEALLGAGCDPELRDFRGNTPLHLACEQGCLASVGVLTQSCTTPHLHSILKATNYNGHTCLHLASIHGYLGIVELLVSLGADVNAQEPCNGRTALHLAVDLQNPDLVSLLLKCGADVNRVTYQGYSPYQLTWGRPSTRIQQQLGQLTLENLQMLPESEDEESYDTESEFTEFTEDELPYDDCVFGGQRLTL

[7] = target: T3, human recombinant NF-κB(p52) protein, Q00653
T3 chain: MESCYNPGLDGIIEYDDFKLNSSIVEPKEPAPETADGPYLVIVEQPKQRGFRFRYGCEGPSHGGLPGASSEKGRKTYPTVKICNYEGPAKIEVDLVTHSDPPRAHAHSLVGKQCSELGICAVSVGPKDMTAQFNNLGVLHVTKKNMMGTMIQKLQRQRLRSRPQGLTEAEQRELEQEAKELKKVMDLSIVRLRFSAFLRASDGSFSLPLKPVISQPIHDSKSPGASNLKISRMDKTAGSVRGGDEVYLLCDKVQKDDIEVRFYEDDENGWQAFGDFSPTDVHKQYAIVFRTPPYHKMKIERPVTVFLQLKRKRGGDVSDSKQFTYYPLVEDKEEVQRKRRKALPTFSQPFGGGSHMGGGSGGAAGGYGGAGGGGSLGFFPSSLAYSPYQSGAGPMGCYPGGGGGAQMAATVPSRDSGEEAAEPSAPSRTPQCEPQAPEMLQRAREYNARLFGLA

Chain of full-length human NF-κB (p65) (human) (Q04206 whole entry): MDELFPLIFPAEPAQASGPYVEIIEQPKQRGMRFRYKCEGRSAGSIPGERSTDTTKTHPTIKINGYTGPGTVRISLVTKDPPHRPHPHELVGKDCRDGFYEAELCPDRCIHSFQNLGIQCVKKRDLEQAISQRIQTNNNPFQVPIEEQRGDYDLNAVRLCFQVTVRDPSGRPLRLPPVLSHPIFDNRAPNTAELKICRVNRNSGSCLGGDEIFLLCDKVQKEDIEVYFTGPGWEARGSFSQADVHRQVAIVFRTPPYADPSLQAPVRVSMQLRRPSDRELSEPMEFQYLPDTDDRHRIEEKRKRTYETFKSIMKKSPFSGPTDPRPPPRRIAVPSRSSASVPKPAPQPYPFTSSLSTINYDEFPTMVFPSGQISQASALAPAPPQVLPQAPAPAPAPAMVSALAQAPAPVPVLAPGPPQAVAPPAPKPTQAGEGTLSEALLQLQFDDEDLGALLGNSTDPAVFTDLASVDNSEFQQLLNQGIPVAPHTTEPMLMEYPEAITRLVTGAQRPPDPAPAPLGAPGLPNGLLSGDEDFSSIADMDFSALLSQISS

Molecule: NCCSSCCN [cystamine, Cystamine]
cytosolic I-κBα level (TGase 2 [1]): reduce the cytosolic I-κBα level almost to the control level

Molecule: DPVKG (pro-elafin sequence) [E2 peptide]
cytosolic I-κBα level (TGase 2 [1]): reduce the cytosolic I-κBα level almost to the control level

Molecule: KVLDGQDP (pro-elafin/antiflammin sequence) [R2 peptide]
cytosolic I-κBα level (TGase 2 [1]): reduce the cytosolic I-κBα level almost to the control level

LDH activity in the medium (SH-SY5Y/TG cells [2]): not detected
caspase-9 expression by Western blotting (SH-SY5Y/TG cells [2]): not detected
Molecule: CC[C@H](C)[C@H](NC(=O)OCc1ccccc1)C(=O)N[C@@H](CCC(=O)OC(C)(C)C)C(=O)N[C@@H](C)C(=O)N[C@H](C=O)CC(C)C [carbobenzoxy-L-isoleucyl-gamma-t-butyl-L-alanyl-L-leucinal] (Cbz-IE(OtBu)AL-aldehyde)
increased ubiquitinated I-κBα (I-κBα): not detected
level of I-κBα (I-κBα): increased

loss of binding efficiency relative to free I-κBα [3]: > 90%
Molecule: polymerized I-κBα (full-length human I-κBα cross-linked by TGase 2) (from UniProt P25963 1-317)

TGase activity (TGase 2 [4]): did not affect
Molecule: CNC(=N)NCCC[C@H](N)C(=O)O [NMMA, N^G-monomethyl-L-arginine]
NO secretion (BV-2 microglia): reduced NO secretion in a dose-dependent manner

Molecule: CC(C)C[C@@H](C=O)NC(=O)[C@H](CC(C)C)NC(=O)[C@H](CC(C)C)NC(=O)OCc1ccccc1 [MG132] (Cbz-Leu-Leu-Leu-aldehyde)
increased ubiquitinated I-κBα (I-κBα): not detected
level of I-κBα (I-κBα): increased
LDH activity in the medium (SH-SY5Y/TG cells [2]): not detected
caspase-9 expression by Western blotting (SH-SY5Y/TG cells [2]): not detected

LDH activity in the medium (SH-SY5Y/TG cells [5]): not detected
caspase-9 expression by Western blotting (SH-SY5Y/TG cells [5]): not detected
Molecule: CC(=O)N[C@@H](CSC(=O)[C@]1([C@@H](O)C(C)C)NC(=O)[C@H](C)[C@@H]1O)C(=O)O [lactacystin]
increased ubiquitinated I-κBα (I-κBα): not detected
level of I-κBα (I-κBα): increased

Molecule: NC(=O)CI [idoacetamide, Iodoacetamide]
cytosolic I-κBα level (TGase 2 [1]): reduce the cytosolic I-κBα level almost to the control level

B1: guinea pig liver TGase 2 (protein)
chain: AEDLILERCDLQLEVNGRDHRTADLCRERLVLRRGQPFWLTLHFEGRGYEAGVDTLTFNAVTGPDPSEEAGTMARFSLSSAVEGGTWSASAVDQQDSTVSLLLSTPADAPIGLYRLSLEASTGYQGSSFVLGHFILLYNPRCPADAVYMDSDQERQEYVLTQQGFIYQGSAKFINGIPWNFGQFEDGILDICLMLLDTNPKFLKNAGQDCSRRSRPVYVGRVVSAMVNCNDDQGVLQGRWDNNYSDGVSPMSWIGSVDILRRWKDYGCQRVKYGQCWVFAAVACTVLRCLGIPTRVVTNFNSAHDQNSNLLIEYFRNESGEIEGNKSEMIWNFHCWVESWMTRPDLEPGYEGWQALDPTPQEKSEGTYCCGPVPVRAIKEGHLNVKYDAPFVFAEVNADVVNWIRQKDGSLRKSINHLVVGLKISTKSVGRDEREDITHTYKYPEGSEEEREAFVRANHLNKLATKEEAQEETGVAMRIRVGQNMTMGSDFDIFAYITNGTAESHECQLLLCARIVSYNGVLGPVCSTNDLLNLTLDPFSENSIPLHILYEKYGDYLTESNLIKVRGLLIEPAANSYVLAERDIYLENPEIKIRVLGEPKQNRKLIAEVSLKNPLPVPLLGCIFTVEGAGLTKDQKSVEVPDPVEAGEQAKVRVDLLPTEVGLHKLVVNFECDKLKAVKGYRNVIIGPA
polymerization of I-κBα (in vitro cross-linking, Western blotting) [6]: resulted in completely polymerized I-κBα
polymerization of NF-κB(p52) (in vitro cross-linking, Coomassie staining) [7]: The same polymerization was not observed
